Measurements published in patent US20240377399A1, “COMPOSITIONS AND METHODS FOR MODULATING HYDROXYLATION OF ACC2 BY PHD3” (President and Fellows of Harvard College, priority 2015, published 2024).
“Also recorded” adds a separate entry of the source. Blank lines part the entries; values can stand above or below the compound they belong to.

Key:
[1] = target: T1, ACC2 (Homo sapiens, UniProt O00763); test: ACC activity assay in 293T cell lysates; type: biochemical; settings: lysates overexpressing ACC2; citrate 2 mM
T1 construct: expressed in transfected cells; host or cells: 293T cells, whole-cell lysate (50 ug protein per reaction)
Method: ACC activity assay. Reactions were performed as previously described, with the exception of using 16.7 mM MgCl2 instead. 50 μg protein lysate was used for each reaction. Following addition of 1 N HCl to quench reactions and convert remaining [^14C]bicarbonate (American Radiolabeled Chemicals) to CO2, reactions were evaporated 2 hours at 600 and 15 min at 850 in a thermo shaker. ACC activity was calculated as incorporation of [^14C]bicarbonate into [^14C]malonyl CoA (the acid and heat stable product) as measured by scintillation counting.

[2] = tested on: MOLM14 cells; test: Cell growth (cell counting at 72 h) following PHD3 overexpression; type: cell-based, human; settings: PHD3-overexpressing MOLM14; S2E 50 μM or metformin 1 mM
Description: FIG. 12B, Growth curves of MOLM14 and THP1 cells stably overexpressing vector or PHD3 (n=3). FIG. 12C, ATP CellTiter-Glo analysis in MOLM14 and THP1 cells stably overexpressing vector or PHD3 (n=4). FIG. 12D, Colony formation assay with MOLM14 and THP1 cells stably overexpressing vector or PHD3. Colony forming units (CFU) were counted 8 days after plating MOLM14 and 20 days after plating THP1 (n=3). FIG. 12E, Representative images from colony formation assays with MOLM14 or THP1 cells stably overexpressing vector or PHD3. MOLM14 colonies were imaged on day 8 and THP1 colonies imaged on day 20 using an inverted microscope (Nikon Eclipse Ti-U) at 200× magnification and SPOT camera software 5.0. FIG. 12F, Immunoblot showing HA-PHD3 overexpression in K562 cells. FIG. 12G and FIG. 12H, Colony formation assay and representative images from K562 cells stably expressing PHD3 or vector. CFU were counted and imaged 10 days after plating (n=3). […] Following FACS to collect PI-negative cells, 8000 cells were plated per well of a 96-well plate, and cell number at 72 h was determined by cell counting (n=3). […] Colony formation was assessed in MOLM14 cells stably overexpressing vector or PHD3 in the presence or absence of metformin (Met, 1 mM). CFU were counted 8 days after plating (n=2). […]

[3] = tested on: MOLM14 cells; test: Colony formation assay (soft agar); type: cell-based, human; settings: for colony formation (growth): PHD3-overexpressing MOLM14, metformin 1 mM, CFU counted 8 days after plating
Description: FIG. 12B, Growth curves of MOLM14 and THP1 cells stably overexpressing vector or PHD3 (n=3). FIG. 12C, ATP CellTiter-Glo analysis in MOLM14 and THP1 cells stably overexpressing vector or PHD3 (n=4). FIG. 12D, Colony formation assay with MOLM14 and THP1 cells stably overexpressing vector or PHD3. Colony forming units (CFU) were counted 8 days after plating MOLM14 and 20 days after plating THP1 (n=3). FIG. 12E, Representative images from colony formation assays with MOLM14 or THP1 cells stably overexpressing vector or PHD3. MOLM14 colonies were imaged on day 8 and THP1 colonies imaged on day 20 using an inverted microscope (Nikon Eclipse Ti-U) at 200× magnification and SPOT camera software 5.0. FIG. 12F, Immunoblot showing HA-PHD3 overexpression in K562 cells. FIG. 12G and FIG. 12H, Colony formation assay and representative images from K562 cells stably expressing PHD3 or vector. CFU were counted and imaged 10 days after plating (n=3). […] Cells were treated with S2E (50 μM, Sigma), metformin (1 mM, Sigma) or vehicle following viral infection with PHD3 and throughout the duration of the experiment. Infected cells were selected with puromycin. Following FACS to collect PI-negative cells, 8000 cells were plated per well of a 96-well plate, and cell number at 72 h was determined by cell counting (n=3). […] Colony formation was assessed in MOLM14 cells stably overexpressing vector or PHD3 in the presence or absence of metformin (Met, 1 mM). CFU were counted 8 days after plating (n=2). FIG. 12K, qPCR analysis of PHD3 gene expression in primary human CD34+ cells from bone marrow filtrate of a healthy donor or AML patient samples (690a, 2093 and 2266). PPIA was used as a reference gene. FIG. 12L, ATP CellTiter-Glo analysis of cell viability in AML patient samples following stable overexpression of empty vector or PHD3 (n=4).

[4] = target: recombinant PHD3 (Homo sapiens, UniProt Q9H6Z9); test: In vitro hydroxylation assay with ACC2 peptides; type: biochemical; settings: 12.5 nmol synthetic peptide; radioactivity-based, [14C]CO2 release
Method: In vitro hydroxylation assay. The in vitro hydroxylation assay was modified from a previously described assay based on the fact that hydroxylation by PHDs results in decarboxylation of […]-ketoglutarate to form carbon dioxide. Briefly, […] reactions were performed in glass vials sealed with rubber stoppers and parafilm wax. Reaction mixtures containing 12.5 nmol synthetic peptide (Peptide 2.0), 50 mM Tris/HCl (pH 7.8), 2 mg/ml BSA, 4200 U/ml catalase, 0.1 mM DTT, 2 mM ascorbate, 500 μM FeSO4·7H2O, 0.02 μmol [1-^14C][…]-ketoglutarate (Perkin Elmer) and 1.2 μg recombinant PHD3 were incubated at 370 for 30 min. Reactions were stopped by injection of 0.25 ml of 1 M KH2PO4 (pH 5) into vials. Vials were agitated on slow speed for 30 min at room temperature to allow capture of [^14C]CO2 onto solubilized Whatman paper positioned at the top of the vials. CPM were measured by scintillation counts on filter paper.

[5] = tested on: K562 leukemia cells; test: Leukemia cell viability by PI staining after 96 hr drug treatment; type: cell-based, human; settings: high-PHD3 CML line, 96 hr treatment, ranolazine 0-500 μM or etomoxir 0-200 μM
Method: (§1) Drug treatment and PI staining. Cells were treated 96 hr with a range of doses of etomoxir (Cayman Chemical) or ranolazine dihydrochloride (VWR/Selleck Chemicals) or vehicle. Fresh etomoxir was spiked in at 24, 48 and 72 hr. Fresh ranolazine was spiked in at 48 hr. Dosing schedules were determined by identifying the minimum number of times drug must be re-added to observe an effect on cell viability. Cell viability at 96 hr was determined by staining cells with 1 µg/ml propidium iodide (Sigma) in PBS and flow cytometry on the BD LSR-II analyzer.

[6] = tested on: MEGO1; test: as above; type: cell-based, human; settings: high-PHD3 CML cell line, high dose of ranolazine, compared to low-PHD3 AML cells
Method: as §1

[7] = tested on: low-PHD3 leukemia cells; test: as above; type: cell-based, human; settings: 96 hr treatment, ranolazine 0-500 μM or etomoxir 0-200 μM
Method: as §1

[8] = tested on: 293T cells; test: Palmitate oxidation (FAO assay); type: cell-based, human; settings: low glucose, serum-free medium supplemented 5 mM for 6 h; PHD3-dependent
Method: FIG. 10C is a photograph of an immunoblot showing 293T cells stably expressing shRNA against PHD3 or non-targeting control were incubated 12 h in high or low nutrient media prior to analyzing ACC hydroxylation by IP and immunoblot. FIG. 10D is a photograph of an immunoblot showing ACC hydroxylation dynamically responds to cellular nutrient cues. WT immortalized MEFs were incubated in high (4.5 g/L glucose DMEM with serum) or low (1 g/L glucose DMEM without serum) nutrient medium for 6 h, or in low nutrient medium for 6 h followed by adding back high nutrient medium for 5 or 10 min. ACC was immunoprecipitated in lysis buffer containing the PHD inhibitor DMOG (1 mM) to minimize further hydroxylation in the lysis buffer. Hydroxylation was detected by immunoblot. FIG. 10E is a bar graph showing the impact of PHD3 knockdown on the ability of immortalized MEFs to modulate palmitate oxidation levels in response to low or high nutrient medium (n=3). […] FIG. 10G is a bar graph showing short, medium and long chain acylcarnitine levels as measured by metabolomics analysis of 293T cells grown in high nutrient medium following stable knockdown with shRNA against PHD3 or control. […]

[9] = tested on: MOLM14 cells; test: Palmitate oxidation (FAO assay); type: cell-based, human; settings: S2E 50 μM for 3 days; 3 h incubation with radiolabeled palmitate
Method: FIG. 15 includes 10 panels, FIGS. 15A-J, showing PHD3 modulation in leukemia cell lines. FIG. 15A, PHD3 expression in MOLM14 and THP1 cells following stable overexpression of vector or PHD3 (n=3). FIG. 15B, Palmitate oxidation in HepG2 cells treated with etomoxir during the 2 h FAO assay (100 μM, n=3). FIG. 15C and FIG. 15D, PHD3 expression and growth curves in K562 cells following stable overexpression of PHD3 or vector (n=3). FIG. 15E, Growth curves of K562 cells stably expressing shRNA against PHD3 or control (n=3). FIG. 15F, Colony formation assay with K562 cells stably expressing shRNA against PHD3 or non-silencing control. Colony forming units (CFU) were counted 10 days after plating (n=2). FIG. 15G, Representative images from colony formation assays with K562 cells stably expressing shRNA against PHD3 or non-silencing control. Colonies were imaged on day 10 using an inverted microscope (Nikon Eclipse Ti-U) at 200× magnification and SPOT camera software 5.0. […] MOLM14 cells were incubated with S2E (50 μM) or vehicle for 3 days. FAO was measured following 3 h incubation with radiolabeled palmitate in the presence of S2E or vehicle. FIG. 151, PHD3 expression in MOLM14 cells following stable overexpression of vector or PHD3 (n=3). […]

[10] = tested on: HepG2 cells; test: Palmitate oxidation (FAO assay); type: cell-based, human; settings: etomoxir 100 μM during the 2 h FAO assay; figure printed for PHD3 overexpression, etomoxir stated to achieve a similar level
Method: Fatty acid oxidation. For FAO assays, cells in 12 well-plates were pre-incubated with 100 µM palmitate or hexanoate and 1 mM carnitine for 4 hr in serum-free low glucose media, unless otherwise noted. Cells were then changed to 600 l media containing 1 μCi [9,10(n)-^3H]palmitic acid (GE Healthcare) or 1.8 μCi n-[5,6-^3H]hexanoic acid (American Radiolabeled Chemicals) and 1 mM carnitine for 2 hr. The medium was collected and eluted in columns packed with DOWEX 1X2-400 ion exchange resin (Sigma) to analyze the released ^3H20, formed during oxidation of [3H]palmitate. FAO in complete media indicates media including serum was used for pre-incubation and FAO analysis. Basal FAO indicates cells were not pre-incubated with fatty acids prior to FAO analysis. For all FAO experiments, counts per minute (CPM) were normalized to protein content in cell lysates.

[11] = tested on: KU812; test: Leukemia cell viability by PI staining after 96 hr drug treatment; type: cell-based, human; settings: low-PHD3 CML cell line; 96 hr treatment with etomoxir
Method: as §1

recombinant PHD3, sequence (Q9H6Z9 whole entry): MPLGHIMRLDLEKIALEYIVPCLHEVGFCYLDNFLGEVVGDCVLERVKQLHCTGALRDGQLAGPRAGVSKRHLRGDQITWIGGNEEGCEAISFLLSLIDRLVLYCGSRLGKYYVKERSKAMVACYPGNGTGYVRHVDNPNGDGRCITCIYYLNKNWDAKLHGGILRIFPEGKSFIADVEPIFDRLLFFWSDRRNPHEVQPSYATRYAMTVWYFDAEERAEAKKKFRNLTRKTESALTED
T1 sequence (O00763 whole entry): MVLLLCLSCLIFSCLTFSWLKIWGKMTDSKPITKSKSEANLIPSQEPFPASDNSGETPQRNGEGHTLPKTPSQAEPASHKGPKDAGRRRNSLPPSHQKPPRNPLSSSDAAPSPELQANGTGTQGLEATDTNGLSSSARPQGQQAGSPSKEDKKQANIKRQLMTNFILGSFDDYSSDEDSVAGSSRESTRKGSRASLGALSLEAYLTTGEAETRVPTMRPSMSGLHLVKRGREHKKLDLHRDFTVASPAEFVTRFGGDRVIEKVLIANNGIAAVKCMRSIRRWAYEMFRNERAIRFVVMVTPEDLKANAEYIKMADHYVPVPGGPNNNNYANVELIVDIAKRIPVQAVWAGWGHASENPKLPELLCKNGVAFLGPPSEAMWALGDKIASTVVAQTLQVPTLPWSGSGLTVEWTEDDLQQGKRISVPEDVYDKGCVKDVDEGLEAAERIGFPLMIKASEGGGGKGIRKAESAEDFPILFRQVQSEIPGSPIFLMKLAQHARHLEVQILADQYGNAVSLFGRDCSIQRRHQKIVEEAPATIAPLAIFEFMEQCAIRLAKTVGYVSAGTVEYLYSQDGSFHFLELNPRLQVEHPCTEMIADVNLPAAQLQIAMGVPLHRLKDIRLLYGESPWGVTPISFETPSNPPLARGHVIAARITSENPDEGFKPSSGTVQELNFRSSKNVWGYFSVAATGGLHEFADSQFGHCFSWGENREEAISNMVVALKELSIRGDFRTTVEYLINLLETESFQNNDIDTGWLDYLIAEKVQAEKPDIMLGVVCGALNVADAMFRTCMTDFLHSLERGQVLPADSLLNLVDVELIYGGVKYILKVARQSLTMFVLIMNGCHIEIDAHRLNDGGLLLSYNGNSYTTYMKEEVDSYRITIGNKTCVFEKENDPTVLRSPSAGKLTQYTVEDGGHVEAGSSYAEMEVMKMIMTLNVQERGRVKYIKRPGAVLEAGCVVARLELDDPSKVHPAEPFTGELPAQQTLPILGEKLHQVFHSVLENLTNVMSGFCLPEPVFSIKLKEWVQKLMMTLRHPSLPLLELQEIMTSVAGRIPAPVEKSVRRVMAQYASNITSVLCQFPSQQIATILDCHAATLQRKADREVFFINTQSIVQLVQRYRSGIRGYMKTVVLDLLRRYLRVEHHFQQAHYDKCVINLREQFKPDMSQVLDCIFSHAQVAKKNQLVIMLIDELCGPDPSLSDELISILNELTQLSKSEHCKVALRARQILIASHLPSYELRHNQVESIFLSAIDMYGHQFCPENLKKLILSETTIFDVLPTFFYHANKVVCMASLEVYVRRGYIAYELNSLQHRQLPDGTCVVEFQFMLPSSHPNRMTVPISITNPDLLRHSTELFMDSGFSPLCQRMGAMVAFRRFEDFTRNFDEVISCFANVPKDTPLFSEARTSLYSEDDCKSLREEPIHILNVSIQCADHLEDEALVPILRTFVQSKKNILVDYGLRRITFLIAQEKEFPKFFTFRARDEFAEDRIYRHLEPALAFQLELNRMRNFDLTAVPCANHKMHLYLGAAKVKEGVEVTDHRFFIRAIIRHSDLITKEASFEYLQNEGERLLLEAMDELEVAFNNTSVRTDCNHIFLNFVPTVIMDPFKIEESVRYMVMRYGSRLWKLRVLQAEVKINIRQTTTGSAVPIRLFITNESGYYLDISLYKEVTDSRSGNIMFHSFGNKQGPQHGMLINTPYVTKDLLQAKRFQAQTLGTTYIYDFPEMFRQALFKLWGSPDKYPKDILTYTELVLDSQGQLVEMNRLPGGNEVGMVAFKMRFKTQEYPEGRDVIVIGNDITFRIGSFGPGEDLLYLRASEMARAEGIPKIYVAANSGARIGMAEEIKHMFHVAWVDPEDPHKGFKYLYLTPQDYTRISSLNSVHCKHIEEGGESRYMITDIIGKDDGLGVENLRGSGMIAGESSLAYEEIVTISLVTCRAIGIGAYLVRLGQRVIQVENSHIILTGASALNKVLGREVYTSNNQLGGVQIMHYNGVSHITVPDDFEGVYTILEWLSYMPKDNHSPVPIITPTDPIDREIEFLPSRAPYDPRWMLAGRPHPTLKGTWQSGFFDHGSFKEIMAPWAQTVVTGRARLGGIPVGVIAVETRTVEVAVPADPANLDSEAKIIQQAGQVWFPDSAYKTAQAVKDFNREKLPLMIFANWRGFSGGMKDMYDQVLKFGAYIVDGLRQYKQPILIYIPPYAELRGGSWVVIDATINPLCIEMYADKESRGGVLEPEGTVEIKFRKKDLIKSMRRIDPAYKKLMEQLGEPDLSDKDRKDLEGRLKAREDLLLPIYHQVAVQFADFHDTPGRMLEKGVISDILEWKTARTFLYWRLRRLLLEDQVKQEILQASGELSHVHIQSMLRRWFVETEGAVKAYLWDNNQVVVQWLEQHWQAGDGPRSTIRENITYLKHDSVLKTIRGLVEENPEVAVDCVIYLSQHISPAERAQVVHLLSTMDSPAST

ACC activity [1]: activated
Compound: O=C(O)CC(O)(CC(=O)O)C(=O)O [citrate]

Compound: CN(C)C(=N)N=C(N)N [metformin]
cell growth at 72 h [2]: trend toward rescued growth | colony formation (growth) [3]: improved growth; also recorded: partially rescues | colony formation (growth) ([3]; listed as Metformin): partially blocks the growth inhibitory effects | cell growth in soft agar ([3]; metformin on its own, 1 mM): impaired cell growth

hydroxylation by recombinant PHD3 [4]: shown to hydroxylate
Compound: ERIGFPLMIKASEGGGGK [ACC2 peptide containing P450]

hydroxylation by recombinant PHD3 [4]: not
Compound: AGQVWFPDSAYKTAQ [peptide containing P2131]

hydroxylation by recombinant PHD3 [4]: not
Compound: ARLELDDPSKVHPAE

Compound: COc1ccccc1OCC(O)CN1CCN(CC(=O)Nc2c(C)cccc2C)CC1 (centres unmarked) [ranolazine]
cell viability [5]: viability was largely maintained | sensitivity (viability) [6]: less sensitive | cell viability [7]: drastically reduced cell viability

Compound: COC(=O)CCC(=O)C(=O)OC [dimethyl ketoglutarate]
palmitate oxidation [8]: repressed palmitate oxidation

Compound: CC(C)(C)c1ccc(N2C[C@@H](COc3ccc(C(=O)O)cc3)CC2=O)cc1 [S2E]
cell growth at 72 h [2]: restores cell growth; also recorded: rescued Molm14 cell growth | palmitate oxidation (FAO) [9]: increases palmitate oxidation; also recorded: amplified FAO

Compound: CCOC(=O)[C@@]1(CCCCCCOc2ccc(Cl)cc2)CO1 [etomoxir]
repression of FAO (palmitate oxidation) [10]: over 50% | sensitivity (viability) [11]: sensitive | cell viability [7]: substantial cell death
